For the experiment, the target named is T1, human TLR7 (Homo sapiens, UniProt Q9NYK1).
T1 construct: host or cells: HEK293 (HEK-Blue hTLR7)
T1 sequence (Q9NYK1 27-1049): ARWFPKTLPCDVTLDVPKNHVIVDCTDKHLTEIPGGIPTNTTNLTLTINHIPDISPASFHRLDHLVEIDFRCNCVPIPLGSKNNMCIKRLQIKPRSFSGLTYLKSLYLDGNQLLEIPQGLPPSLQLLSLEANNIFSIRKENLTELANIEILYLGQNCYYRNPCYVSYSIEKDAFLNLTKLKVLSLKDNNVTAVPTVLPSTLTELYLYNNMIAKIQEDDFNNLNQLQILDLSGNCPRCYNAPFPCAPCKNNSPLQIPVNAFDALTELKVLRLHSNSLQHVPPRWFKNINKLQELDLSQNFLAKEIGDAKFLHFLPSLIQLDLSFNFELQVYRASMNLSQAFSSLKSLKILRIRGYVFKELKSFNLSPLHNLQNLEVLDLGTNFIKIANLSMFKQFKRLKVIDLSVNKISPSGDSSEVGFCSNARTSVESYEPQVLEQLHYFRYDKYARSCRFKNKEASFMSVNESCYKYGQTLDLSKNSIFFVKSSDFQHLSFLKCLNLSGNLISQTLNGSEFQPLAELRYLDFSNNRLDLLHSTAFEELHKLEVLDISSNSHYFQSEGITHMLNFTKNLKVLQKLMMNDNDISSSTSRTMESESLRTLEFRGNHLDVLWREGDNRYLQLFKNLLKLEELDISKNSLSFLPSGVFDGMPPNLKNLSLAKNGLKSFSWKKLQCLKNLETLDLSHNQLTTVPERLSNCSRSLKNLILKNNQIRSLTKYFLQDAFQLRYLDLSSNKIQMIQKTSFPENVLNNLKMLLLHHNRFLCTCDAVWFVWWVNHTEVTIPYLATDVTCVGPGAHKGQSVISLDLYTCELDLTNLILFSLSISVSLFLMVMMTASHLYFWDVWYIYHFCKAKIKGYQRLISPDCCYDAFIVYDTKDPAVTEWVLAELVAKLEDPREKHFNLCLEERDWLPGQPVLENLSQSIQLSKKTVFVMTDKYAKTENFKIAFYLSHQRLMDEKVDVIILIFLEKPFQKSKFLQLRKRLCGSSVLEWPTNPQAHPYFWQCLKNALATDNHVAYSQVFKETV
The experiment is described as follows: HEK293-Blue-hTLR-7 cells assay (SEAP reporter, R848 stimulation). In kind it is cell-based. The settings on record: HEK293-Blue-hTLR7 cells, R848, 20 hrs; read-out: HEK/hTLR7 IC50. In short, it runs like this: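 HEK293-Blue-hTLR7 cells (NF-κB/AP-1-driven SEAP reporter) were stimulated with R848 alongside serially diluted compound at 1% final DMSO for 20 h at 37 °C. Supernatant SEAP was then developed with QUANTI-Blue for 2 h at 37 °C and absorbance read at 620–655 nm; antagonism is measured as reduced reporter signal.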
With `Cc1cc(N2CCN(C[C@H]3CN(c4ccc(C#N)c5ncccc45)C[C@@H](C)O3)CC2)nc(N2CCC(N)C(F)(F)C2)n1` (stereo partly drawn) [Example 86, 5-[(2S,6R)-2-[[4-[2-(4-amino-3,3-difluoro-1-piperidyl)-6-methyl-pyrimidin-4-yl]piperazin-1-yl]methyl]-6-methyl-morpholin-4-yl]quinoline-8-carbonitrile], the IC50 turned out to be 22 nM.

Consider `Cc1cc(N2CCN(C[C@H]3CN(c4ccc(C#N)c5ncccc45)C[C@@H](C)O3)CC2)nc(N2CC(N)C2)n1` [Example 87, 5-[(2S,6R)-2-[[4-[2-(3-aminoazetidin-1-yl)-6-methyl-pyrimidin-4-yl]piperazin-1-yl]methyl]-6-methyl-morpholin-4-yl]quinoline-8-carbonitrile], for which the IC50 is 8 nM. Next, `C[C@@H]1CN(c2ccc(C#N)c3ncccc23)C[C@H](CN2CCN(c3ccccc3C3CNCCO3)CC2)O1` (stereo partly drawn) [Example 89, 5-[(2R,6S)-2-methyl-6-[[4-(2-morpholin-2-ylphenyl)piperazin-1-yl]methyl]morpholin-4-yl]quinoline-8-carbonitrile]: 6 nM.
